Where “and” joins values, the source holds several entries; their conditions need not be identical. Equal entries are not always repeated. Toxic doses and inconclusive results are not listed. No stated cut-off is given here; in the data, active means T/C of 150% or more; inactive means T/C below 125%.
Tested on: L1210 leukemia ip in BDF1 mice, survival T/C
Assay: NCI In Vivo Anticancer Drug Screen. Data for tumor model L1210 Leukemia (intraperitoneal) in B6D2F1 (BDF1) mice
Settings: endpoint: mean survival time, higher = longer survival
In short: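 In this screen, tumor-bearing mice given compound are compared to those given vehicle, and their survival values are reported as a treated-to-control quotient.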

[1] = dose: 100.0 mg/kg/injection, schedule: Q04DX003 (ip), vehicle: Klucel (hydroxypropylcellulose) (HPC)
[2] = dose: 200.0 mg/kg/injection, schedule: Q04DX003 (ip), vehicle: Klucel (hydroxypropylcellulose) (HPC)
[3] = dose: 400.0 mg/kg/injection, schedule: Q04DX003 (ip), vehicle: Klucel (hydroxypropylcellulose) (HPC)
[4] = dose: 100.0 mg/kg/injection, schedule: Q01DX009 (ip), vehicle: saline with Tween-80
[5] = dose: 200.0 mg/kg/injection, schedule: Q01DX009 (ip), vehicle: saline with Tween-80
[6] = dose: 100.0 mg/kg/injection, schedule: Q01DX009 (ip), vehicle: Klucel (hydroxypropylcellulose) (HPC)
[7] = dose: 200.0 mg/kg/injection, schedule: Q01DX009 (ip), vehicle: Klucel (hydroxypropylcellulose) (HPC)
[8] = dose: 100.0 mg/kg/injection, schedule: Q01DX001 (ip), vehicle: Klucel (hydroxypropylcellulose) (HPC)
[9] = dose: 200.0 mg/kg/injection, schedule: Q01DX001 (ip), vehicle: Klucel (hydroxypropylcellulose) (HPC)
[10] = dose: 100.0 mg/kg/injection, schedule: Q01DX001 (ip), vehicle: carboxymethylcellulose (CMC)
[11] = dose: 200.0 mg/kg/injection, schedule: Q01DX001 (ip), vehicle: carboxymethylcellulose (CMC)
[12] = dose: 400.0 mg/kg/injection, schedule: Q01DX001 (ip), vehicle: carboxymethylcellulose (CMC)
[13] = dose: 100.0 mg/kg/injection, schedule: Q04DX002 (ip), vehicle: saline with Tween-80
[14] = dose: 200.0 mg/kg/injection, schedule: Q04DX002 (ip), vehicle: saline with Tween-80

Measured: T/C

CCCCc1c(N)nc(=S)[nH]c1C(=O)O
inactive: dose: 75.0 mg/kg/injection, schedule: Q01DX009 (ip), vehicle: Klucel (hydroxypropylcellulose) (HPC) 98 % of control | [1] 95 % of control | dose: 150.0 mg/kg/injection, schedule: Q01DX009 (ip), vehicle: Klucel (hydroxypropylcellulose) (HPC) 106 % of control | [2] 98 % of control and 91 % of control | dose: 300.0 mg/kg/injection, schedule: Q01DX009 (ip), vehicle: Klucel (hydroxypropylcellulose) (HPC) 108 % of control | [3] 96 % of control

Nc1cc(Nc2ccc(S(N)(=O)=O)cc2)nc(N)n1
inactive: [1] 93 % of control | [2] 97 % of control | [3] 93 % of control

CN(C)c1ccc(/C=N\NC(=O)CCCCC(=O)N/N=C\c2ccc(N(C)C)cc2)cc1
inactive: [1] 94 % of control | [2] 91 % of control | [3] 91 % of control

O=C1OC(c2c3ccccc3cc3ccccc23)c2ccccc21 (centres undefined)
inactive: dose: 50.0 mg/kg/injection, schedule: Q01DX009 (ip), vehicle: saline with Tween-80 98 % of control | [4] 98 % of control | [5] 95 % of control

CCCCCCCCCCCCC(CCCCCCCCCCC)CCCCCCCCCCCC
inactive: dose: 100.0 mg/kg/injection, schedule: Q01DX001 (ip), vehicle: saline with Tween-80 97 % of control | dose: 200.0 mg/kg/injection, schedule: Q01DX001 (ip), vehicle: saline with Tween-80 97 % of control | dose: 400.0 mg/kg/injection, schedule: Q01DX001 (ip), vehicle: saline with Tween-80 96 % of control

N#C/C(=C/c1cc([N+](=O)[O-])c(O)c([N+](=O)[O-])c1)C(N)=O
inactive: dose: 75.0 mg/kg/injection, schedule: Q01DX001 (ip), vehicle: saline 96 % of control | dose: 150.0 mg/kg/injection, schedule: Q01DX001 (ip), vehicle: saline 98 % of control | dose: 300.0 mg/kg/injection, schedule: Q01DX001 (ip), vehicle: saline 95 % of control

CC(C)COC(=O)COc1ccccc1
inactive: dose: 100.0 mg/kg/injection, schedule: Q04DX003 (ip), vehicle: saline with Tween-80 104 % of control | dose: 200.0 mg/kg/injection, schedule: Q04DX003 (ip), vehicle: saline with Tween-80 104 % of control | dose: 400.0 mg/kg/injection, schedule: Q04DX003 (ip), vehicle: saline with Tween-80 86 % of control

COC(=O)C(c1ccccc1)C(Br)C(=O)c1ccc(Cl)cc1 (centres undefined)
inactive: [6] 92 % of control | [7] 97 % of control | dose: 400.0 mg/kg/injection, schedule: Q01DX009 (ip), vehicle: Klucel (hydroxypropylcellulose) (HPC) 94 % of control

CC(C)(C)OC(=O)C(C=O)N1C(=O)c2ccccc2C1=O (centres undefined)
inactive: [8] 94 % of control | dose: 100.0 mg/kg/injection, schedule: Q01DX009 (ip), vehicle: saline sonified 100 % of control | [9] 92 % of control | dose: 200.0 mg/kg/injection, schedule: Q01DX009 (ip), vehicle: saline sonified 94 % of control | dose: 400.0 mg/kg/injection, schedule: Q01DX001 (ip), vehicle: Klucel (hydroxypropylcellulose) (HPC) 100 % of control | dose: 400.0 mg/kg/injection, schedule: Q01DX009 (ip), vehicle: saline sonified 98 % of control

O=C1c2ccccc2C(=O)N1CCCO
inactive: dose: 50.0 mg/kg/injection, schedule: Q01DX001 (ip), vehicle: Klucel (hydroxypropylcellulose) (HPC) 96 % of control | [8] 100 % of control | [9] 102 % of control

c1ccc([P+](c2ccccc2)(c2ccccc2)C2OCCO2)cc1
inactive: dose: 25.0 mg/kg/injection, schedule: Q04DX003 (ip), vehicle: saline with Tween-80 95 % of control | dose: 50.0 mg/kg/injection, schedule: Q04DX003 (ip), vehicle: saline with Tween-80 103 % of control

CC(C)CC(=O)N(C)c1ccccc1
inactive: dose: 50.0 mg/kg/injection, schedule: Q01DX001 (ip), vehicle: carboxymethylcellulose (CMC) 111 % of control | [10] 108 % of control | [11] 100 % of control | [12] 97 % of control

Cc1ccc(C(=O)c2ccccc2N)cc1C
inactive: [10] 100 % of control | [11] 116 % of control | [12] 102 % of control

C=C(Br)CNC(=O)C(C(F)(F)F)C(F)(F)F
inactive: dose: 12.5 mg/kg/injection, schedule: Q01DX009 (ip), vehicle: Klucel (hydroxypropylcellulose) (HPC) 95 % of control | dose: 12.5 mg/kg/injection, schedule: Q04DX003 (ip), vehicle: Klucel (hydroxypropylcellulose) (HPC) 96 % of control | dose: 25.0 mg/kg/injection, schedule: Q01DX009 (ip), vehicle: Klucel (hydroxypropylcellulose) (HPC) 97 % of control | dose: 25.0 mg/kg/injection, schedule: Q04DX003 (ip), vehicle: Klucel (hydroxypropylcellulose) (HPC) 98 % of control | dose: 50.0 mg/kg/injection, schedule: Q01DX009 (ip), vehicle: Klucel (hydroxypropylcellulose) (HPC) 95 % of control | dose: 50.0 mg/kg/injection, schedule: Q04DX003 (ip), vehicle: Klucel (hydroxypropylcellulose) (HPC) 96 % of control

CC1(C)N=C(N)N=C(N)N1NC(=O)c1cccc(Cl)c1
inactive: dose: 100.0 mg/kg/injection, schedule: Q04DX003 (ip), vehicle: saline 101 % of control | dose: 200.0 mg/kg/injection, schedule: Q04DX003 (ip), vehicle: saline 94 % of control

Nc1nc(Nc2ccc(Cl)c(Cl)c2)cc(=O)[nH]1
inactive: dose: 200.0 mg/kg/injection, schedule: Q01DX Z (ip), vehicle: methylcellulose (MC) 86 % of control

O=C(Nc1ccc(Cl)c([N+](=O)[O-])c1)Oc1ccccc1F
inactive: [6] 92 % of control | [1] 97 % of control | [7] 101 % of control | [2] 97 % of control | [3] 96 % of control

COc1ccc2cc(Br)ccc2c1
inactive: [4] 107 % of control | [5] 102 % of control | dose: 400.0 mg/kg/injection, schedule: Q01DX009 (ip), vehicle: saline with Tween-80 102 % of control

C[N+](C)(C)CCOC(=O)c1ccccc1CCl
inactive: [13] 98 % of control | [14] 102 % of control

CC1C(C)(C)C1(F)Cl (centres undefined)
inactive: [10] 95 % of control | [11] 103 % of control | [12] 108 % of control

CCOC(=O)c1ccc(NC(=S)NC(Cc2ccccc2)c2ccccc2)cc1 (centres undefined)
inactive: [13] 98 % of control | [14] 95 % of control | dose: 400.0 mg/kg/injection, schedule: Q04DX002 (ip), vehicle: saline with Tween-80 95 % of control

O=C(Nc1cc([N+](=O)[O-])ccc1S(=O)(=O)c1ccc([N+](=O)[O-])cc1NC(=O)c1ccccc1)c1ccccc1
inactive: dose: 75.0 mg/kg/injection, schedule: Q04DX003 (ip), vehicle: saline 92 % of control | dose: 100.0 mg/kg/injection, schedule: Q01DX001 (ip), vehicle: saline 93 % of control | dose: 150.0 mg/kg/injection, schedule: Q04DX003 (ip), vehicle: saline 124 % of control | dose: 200.0 mg/kg/injection, schedule: Q01DX001 (ip), vehicle: saline 94 % of control | dose: 300.0 mg/kg/injection, schedule: Q04DX003 (ip), vehicle: saline 92 % of control | dose: 400.0 mg/kg/injection, schedule: Q01DX001 (ip), vehicle: saline 94 % of control

C(=C\c1ccccc1)/Nc1ccccc1
inactive: [1] 97 % of control | [2] 96 % of control | [3] 92 % of control
